The target of test [1] is T1, Vitamin D3 receptor (Rattus norvegicus, UniProt P13053).
T1 sequence (P13053 whole entry): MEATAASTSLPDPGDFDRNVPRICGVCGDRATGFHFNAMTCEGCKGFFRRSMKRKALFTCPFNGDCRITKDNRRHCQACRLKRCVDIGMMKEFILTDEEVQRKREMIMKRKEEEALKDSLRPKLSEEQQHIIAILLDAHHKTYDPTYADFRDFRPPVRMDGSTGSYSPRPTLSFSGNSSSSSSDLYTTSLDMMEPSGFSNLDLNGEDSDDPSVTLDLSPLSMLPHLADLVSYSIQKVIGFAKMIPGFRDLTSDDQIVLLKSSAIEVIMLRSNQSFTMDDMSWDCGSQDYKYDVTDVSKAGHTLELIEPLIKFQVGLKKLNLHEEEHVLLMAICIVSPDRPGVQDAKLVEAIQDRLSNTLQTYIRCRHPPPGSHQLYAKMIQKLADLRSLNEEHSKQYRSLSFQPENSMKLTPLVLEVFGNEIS
In words: Displacement of [3H]1-alpha,25-(OH)2D3 from rat recombinant full length VDR.

Test [2] has as its system Rattus norvegicus. In words: Effect on calcium transport in vitamin D-deficient Sprague-Dawley rat intestine assessed as ratio of serosal to mucosal calcium level at 260 pmol, ip administered 4 consecutive daily doses assessed after 24 hrs of last dose by gut sac assay. It is filed as functional.
The target of test [3] is T1, Vitamin D3 receptor. In words: Activity at rat recombinant full length VDR expressed in rat ROS 17/2.8 cells transfected with 24-hydroxylase gene promoter assessed as transcriptional activation after 16 hrs by luciferase reporter gene assay.
In test [4] the test system is Rattus norvegicus. In words: Effect on bone calcium mobilization in vitamin D-deficient Sprague-Dawley rat assessed as serum calcium level at 2340 pmol, ip administered 4 consecutive daily doses assessed after 24 hrs of last dose by spectrometry. It counts as functional.
The test system of a further test is HL-60. In words: Induction of differentiation of human HL-60 cells promyelocytes to monocytes after 4 days by NBT reduction assay. It is filed as functional, cell-based. The following applies: HL-60, 96 h.
The subject of test [5] is Rattus norvegicus. Nature of the test: Effect on bone calcium mobilization in vitamin D-deficient Sprague-Dawley rat assessed as serum calcium level at 260 pmol, ip administered 4 consecutive daily doses assessed after 24 hrs of last dose by spectrometry. It counts as functional.
Test [6] deals with Rattus norvegicus. Nature of the test: Effect on calcium transport in vitamin D-deficient Sprague-Dawley rat intestine assessed as ratio of serosal to mucosal calcium level at 2340 pmol, ip administered 4 consecutive daily doses assessed after 24 hrs of last dose by gut sac assay. It is filed as functional.
In test [7] the test system is Rattus norvegicus. Nature of the test: Effect on calcium transport in vitamin D-deficient Sprague-Dawley rat intestine assessed as ratio of serosal to mucosal calcium level at 320 pmol, ip administered 4 consecutive daily doses assessed after 24 hrs of last dose by gut sac assay. It is filed as functional.
Test [8] concerns Rattus norvegicus. Nature of the test: Effect on bone calcium mobilization in vitamin D-deficient Sprague-Dawley rat assessed as serum calcium level at 320 pmol, ip administered 4 consecutive daily doses assessed after 24 hrs of last dose by spectrometry. It is filed as functional.
The subject of test [9] is Rattus norvegicus. In words: Effect on calcium transport in vitamin D-deficient Sprague-Dawley rat intestine assessed as ratio of serosal to mucosal calcium level at 960 pmol, ip administered 4 consecutive daily doses assessed after 24 hrs of last dose by gut sac assay. It is filed as functional.
For test [10], the system named is Rattus norvegicus. Nature of the test: Effect on calcium transport in vitamin D-deficient Sprague-Dawley rat intestine assessed as ratio of serosal to mucosal calcium level at 7800 pmol, ip administered 4 consecutive daily doses assessed after 24 hrs of last dose by gut sac assay. It counts as functional.
The subject of test [11] is Rattus norvegicus. In words: Effect on bone calcium mobilization in vitamin D-deficient Sprague-Dawley rat assessed as serum calcium level at 960 pmol, ip administered 4 consecutive daily doses assessed after 24 hrs of last dose by spectrometry. It counts as functional.
The test system of test [12] is Rattus norvegicus. In words: Effect on bone calcium mobilization in vitamin D-deficient Sprague-Dawley rat assessed as serum calcium level at 7800 pmol, ip administered 4 consecutive daily doses assessed after 24 hrs of last dose by spectrometry. It is filed as functional.
The target of test [13] is T2, Vitamin D3 receptor (Rattus norvegicus) (UniProt P13053).
T2 sequence (whole entry): T1 sequence (P13053 whole entry)
In words: Antagonist activity at rat recombinant VDR expressed in rat ROS 17/2.8 cells transfected with 24-hydroxylase gene promoter assessed as 1-alpha,25-(OH)2D3-induced transcriptional activation at 0.001 uM to 0.1 uM after 16 hrs by luciferase reporter gene assay. It counts as functional, cell-based.

SMILES strings stand for the structures. Activity calls are given as the source filed them. The rule behind the calls is not given here.

What is called Ki is the equilibrium dissociation constant of an inhibitor or competing ligand from its target. As a reminder, the EC50 is the concentration needed to bring the measured effect to its halfway point.

For `C=C1C[C@H](C[C@@H](C)[C@H]2CC[C@H]3/C(=C/C=C4C[C@@H](O)C(=C)[C@H](O)C4)CCC[C@]23C)OC1=O`, at Vitamin D3 receptor [1], the Ki worked out at 1 nM. The Ratio turned out to be 7.6 in the test with Rattus norvegicus [2], 4.2 with Rattus norvegicus [4], 4.4 in the test on Rattus norvegicus [5] and 9.5 in the test on Rattus norvegicus [6]. Moreover, the 50% effective concentration (EC50) at Vitamin D3 receptor [3] was 2 nM; in the test with HL-60, 4 nM.

For `C=C1C[C@@H](C[C@@H](C)[C@H]2CC[C@H]3/C(=C/C=C4C[C@@H](O)C(=C)[C@H](O)C4)CCC[C@]23C)OC1=O`, on Vitamin D3 receptor [1], the Ki is 2 nM. For the same molecule, the Ratio in the test with Rattus norvegicus [7] came to 5.1; with Rattus norvegicus [8] it was 3.7; in the test with Rattus norvegicus [2], 5.6; in the test on Rattus norvegicus [9], 5.9; with Rattus norvegicus [10], 11; with Rattus norvegicus [11] it was 3.8. For the same molecule, the figures for the Ratio in the test on Rattus norvegicus [12] and with Rattus norvegicus [6] were 4 and 9.6, respectively. For the same molecule, the EC50 on Vitamin D3 receptor [3] was determined as 100 nM; with HL-60, 2 nM.

In the case of `C=C1[C@H](O)CC(=C/C=C2\CCC[C@]3(C)[C@@H]([C@H](C)/C=C/[C@@H](O)C4(C(=O)OCCCC)CC4)CC[C@@H]23)C[C@H]1O`, the outcome in test [13] was Active.

Values taken from ChEMBL document CHEMBL1144158, “Synthesis and biological properties of 2-methylene-19-nor-25-dehydro-1alpha-hydroxyvitamin D(3)-26,23-lactones--weak agonists” (Bioorg Med Chem, 2008).
